Measured values from patent publication US8680113B2, “BMI-1 protein expression modulators” (PTC Therapeutics, Inc., priority 2008, dated 2014).

System: Bmi-1
Test: Sandwich ELISA Assay (Bmi-1 ELISA in HT-1080 cells)
Type: cell-based, human
Method: Cell Seeding and Compound Treatment (Day 1):
HT-1080 cells were seeded at 8000 cells/well (50 uL) in 96-well tissue culture plates. After the cells become adherent (3-4 hours), 2× diluted stocks of compounds in 50 uL DMEM containing 1% DMSO (final DMSO concentration was 0.5%) were added and the plates were incubated at 37° C. under 5% CO2 for 40-48 hours
ELISA Plate First Antibody Preparation (Day 2):
The First Antibody (Millipore Mouse, monoclonal to mouse Bmi-1, clone F6, catalog #05-637) diluted to 2 ug/mL in PBS was added (100 uL) to each well of a Nunc MaxiSorp 96-well ELISA plate. The plate was covered with a plate seal and allowed to stand overnight.
Cell Lysate Preparation (Day 3):
Fresh 1× Lysis buffer was prepared on the day of the assay as follows: 1 mM EDTA, 150 mM NaCl, 0.5% Triton-X 100, 10 mM NaF, 20 mM B-Glycerophosphate, 1 mM DTT (in PBS, pH 7.2-7.4) and 1×HALT protease inhibitor cocktail (Pierce #78410).
1× Lysis Buffer (40 uL) was added to each well and the plate was shaken for 5-10 minutes on an orbital shaker to allow cell lysis, then Diluent (1% BSA in PBS in 0.5% NP40) (100 uL) was added to each well.
The Bmi-1 standard curve was prepared in Diluent at the following concentrations of protein: 8000, 4000, 2000, 1000, 500, 250, 125, 0 pg/mL The Bmi-1 Recombinant Protein Standard (Novus Biologicals PCGF4 Recombinant Protein (P01), catalog #H00000648-P01) used in the standard curve was stored at −80° C., and on first thaw, diluted to 10 ug/uL in Blocking Buffer (1% BSA in PBS; BSA: Fisher Scientific Catalog #1600-100) before being aliquoted and refrozen at −80° C. Aliquots can be kept at 4° C. and reused after first thaw, but only for 1-2 weeks. The Bmi-1 Recombinant Protein Standard contains a GST-fusion tag and thus will show up on western blots around 70 Kda.
The prepared ELISA plate was washed 3× with Wash Buffer (0.05% Tween-20 in PBS). The final wash was removed from the plate and the plate was blotted dry on paper towels. Blocking Buffer (300 uL) (1% BSA in PBS) was added per well. The plate was covered with a plate seal and incubated at room temperature for 1 hour. The blocked plate was washed 3× with Wash Buffer, the final wash was removed and the plate was blotted dry on paper towels. The previously prepared samples and standards were added (at 100 uL/well) and the plate was covered with a plate seal and incubated at 4° C. overnight.
The prepared ELISA plate was removed from 4° C., incubated at room temperature for 30 minutes, then washed and blotted dry as previously described for Day 3. The Second Antibody (Cell Signaling Rabbit anti-Bmi-1, Cat#2830) diluted to 1:600 in Blocking Buffer was added (100 uL) to each well, except as needed for background control wells. The plate was covered with a plate seal and incubated for 1.5 hrs at room temperature.
The ELISA plate was washed and blotted dry as previously described. The Third Antibody (Cell Signaling HRP conjugated anti-rabbit IgG (CellSignaling, Cat#:7074) diluted to 1:300 in Blocking Buffer was added (100 uL) to each well, except as needed for background control wells. The plate was incubated for 1 hr at room temperature.
The plate was washed and blotted dry as previously described, then prepared TMB substrate (TMB substrate kit, Pierce catalog #34021) (prepared by mixing kit reagents 1:1) (100 uL) was added per well. The plate was incubated for 20-30 minutes at room temperature in the dark, then Stop Solution (2 M sulfuric acid in water) (50 uL) was added per well. The plates were read at OD450 (experimental) and OD570 (reference).

`FC(F)(F)c1nc2ncccn2c1-c1csc(Nc2ccc3c(c2)OCO3)n1` [Cpd 154, N-(1,3-benzodioxol-5-yl)-4-[2-(trifluoromethyl)imidazo[1,2-a]pyrimidin-3-yl]-1,3-thiazol-2-amine] and `CCN(CC)c1ccc(Nc2nc(-c3c(C)nc4ccc(C)cn34)cs2)cc1` [Cpd 75, N′-[4-(2,6-dimethylimidazo[1,2-a]pyridin-3-yl)-1,3-thiazol-2-yl]-N,N-diethylbenzene-1,4-diamine] cannot be ordered by IC50: under 500 nM for the first, under 500 nM for the second.

`CN(C)c1ccc(Nc2nc(-c3cnc4ccc(Cl)cn34)cs2)cc1` [Cpd 106, N′-[4-(6-chloroimidazo[1,2-a]pyridin-3-yl)-1,3-thiazol-2-yl]-N,N-dimethylbenzene-1,4-diamine] and `Cc1nc2ccccn2c1-c1csc(Nc2ccc(Br)cc2)n1` [Cpd 197, N-(4-bromophenyl)-4-(2-methylimidazo[1,2-a]pyridin-3-yl)-1,3-thiazol-2-amine] cannot be ordered by IC50: under 500 nM for the first, under 500 nM for the second.

`Cc1nc2ccccn2c1-c1csc(Nc2ccc(O)cc2)n1` [Cpd 36, 4-{[4-(2-methylimidazo[1,2-a]pyridin-3-yl)-1,3-thiazol-2-yl]amino}phenol] and `COc1ccc(Nc2nc(-c3c(C)nc4c(C)cccn34)cs2)cc1` [Cpd 222, 4-(2,8-dimethylimidazo[1,2-a]pyridin-3-yl)-N-(4-methoxyphenyl)-1,3-thiazol-2-amine] cannot be ordered by IC50: under 500 nM for the first, under 500 nM for the second.

`Cc1nc2ccc(Cl)cn2c1-c1csc(Nc2ccc3c(c2)OC(C)(C)O3)n1` [Cpd 219, 4-(6-chloro-2-methylimidazo[1,2-a]pyridin-3-yl)-N-(2,2-dimethyl-1,3-benzodioxol-5-yl)-1,3-thiazol-2-amine] and `Cc1nc2ncccn2c1-c1ccnc(N(C)c2ccccc2Cl)n1` [Cpd 140, N-(2-chlorophenyl)-N-methyl-4-(2-methylimidazo[1,2-a]pyrimidin-3-yl)pyrimidin-2-amine] cannot be ordered by IC50: under 500 nM for the first, under 500 nM for the second.

`Cc1nc2ccc(Cl)cn2c1-c1csc(Nc2ccc(O)cc2)n1` [Cpd 92, 4-{[4-(6-chloro-2-methylimidazo[1,2-a]pyridin-3-yl)-1,3-thiazol-2-yl]amino}phenol] and `CCc1nc2ncccn2c1-c1csc(Nc2ccc(I)cc2)n1` [Cpd 149, 4-(2-ethylimidazo[1,2-a]pyrimidin-3-yl)-N-(4-iodophenyl)-1,3-thiazol-2-amine] cannot be ordered by IC50: under 500 nM for the first, under 500 nM for the second.

`CC(=O)c1ccc(Nc2nccc(-c3cnc4ccccn34)n2)cc1` [Cpd 250, 1-(4-{[4-(imidazo[1,2-a]pyridin-3-yl)pyrimidin-2-yl]amino}phenyl)ethanone] and `CCc1nc2ncccn2c1-c1csc(Nc2ccc(OC)c(F)c2)n1` [Cpd 152, 4-(2-ethylimidazo[1,2-a]pyrimidin-3-yl)-N-(3-fluoro-4-methoxyphenyl)-1,3-thiazol-2-amine] cannot be ordered by IC50: under 500 nM for the first, under 500 nM for the second.

`Cc1cc(Br)ccc1Nc1nc(-c2c(C)nc3ccc(Cl)cn23)cs1` [Cpd 216, N-(4-bromo-2-methylphenyl)-4-(6-chloro-2-methylimidazo[1,2-a]pyridin-3-yl)-1,3-thiazol-2-amine] and `Cc1nc2ncccn2c1-c1csc(N(C)c2ccc3c(c2)OCO3)n1` [Cpd 40, N-(1,3-benzodioxol-5-yl)-N-methyl-4-(2-methylimidazo[1,2-a]pyrimidin-3-yl)-1,3-thiazol-2-amine] cannot be ordered by IC50: under 500 nM for the first, under 500 nM for the second.

`COc1ccc(Nc2nc(-c3cnc4ccc(Cl)cn34)cs2)cc1F` [Cpd 110, 4-(6-chloroimidazo[1,2-a]pyridin-3-yl)-N-(3-fluoro-4-methoxyphenyl)-1,3-thiazol-2-amine] and `Clc1cccc(Nc2nccc(-c3cnc4ccccn34)n2)c1` [Cpd 246, N-(3-chlorophenyl)-4-(imidazo[1,2-a]pyridin-3-yl)pyrimidin-2-amine] cannot be ordered by IC50: under 500 nM for the first, under 500 nM for the second.

`COCCOc1ccc(Nc2nc(-c3c(C)nc4ccc(Cl)cn34)cs2)cc1` [Cpd 93, 4-(6-chloro-2-methylimidazo[1,2-a]pyridin-3-yl)-N-[4-(2-methoxyethoxy)phenyl]-1,3-thiazol-2-amine] and “1-(4-{[4-(imidazo[1,2-a]pyrimidin-3-yl)pyrimidin-2-yl]amino}phenyl)ethanone [Cpd 258]” cannot be ordered by IC50: under 500 nM for the first, under 500 nM for the second.

First: CCc1nc2ncccn2c1-c1csc(Nc2ccc3c(c2)OCO3)n1 [Cpd 151, N-(1,3-benzodioxol-5-yl)-4-(2-ethylimidazo[1,2-a]pyrimidin-3-yl)-1,3-thiazol-2-amine]
Second: Cc1nc2ccccn2c1-c1ccnc(N(C)c2ccc(I)cc2)n1 [Cpd 143, N-(4-iodophenyl)-N-methyl-4-(2-methylimidazo[1,2-a]pyridin-3-yl)pyrimidin-2-amine]
The IC50 of the first is lower: under 500 nM for the first, 500 to 1000 nM for the second. The first is the more potent here.

`COc1cc(F)c(Nc2nc(-c3c(C)nc4ccccn34)cs2)c(F)c1` [Cpd 57, N-(2,6-difluoro-4-methoxyphenyl)-4-(2-methylimidazo[1,2-a]pyridin-3-yl)-1,3-thiazol-2-amine] and `CCCc1nc2ncccn2c1-c1csc(Nc2ccc(OC)c(F)c2)n1` [Cpd 181, N-(3-fluoro-4-methoxyphenyl)-4-(2-propylimidazo[1,2-a]pyrimidin-3-yl)-1,3-thiazol-2-amine] cannot be ordered by IC50: under 500 nM for the first, under 500 nM for the second.

“N-(4-ethoxyphenyl)-4-(2-methylimidazo[1,2-a]pyridin-3-yl)pyrimidin-2-amine [Cpd 128]” and `COc1ccc(Nc2nc(-c3c(C)nc4ccccn34)cs2)cc1F` [Cpd 51, N-(3-fluoro-4-methoxyphenyl)-4-(2-methylimidazo[1,2-a]pyridin-3-yl)-1,3-thiazol-2-amine] cannot be ordered by IC50: under 500 nM for the first, under 500 nM for the second.

`CCCc1nc2ccccn2c1-c1csc(Nc2ccc3c(c2)OCO3)n1` [Cpd 175, N-(1,3-benzodioxol-5-yl)-4-(2-propylimidazo[1,2-a]pyridin-3-yl)-1,3-thiazol-2-amine] and `COc1ccc(Nc2nc(-c3c(C)nc4ccc(C)cn34)cs2)cc1Cl` [Cpd 73, N-(3-chloro-4-methoxyphenyl)-4-(2,6-dimethylimidazo[1,2-a]pyridin-3-yl)-1,3-thiazol-2-amine] cannot be ordered by IC50: under 500 nM for the first, under 500 nM for the second.

`Cc1ccn2c(-c3csc(Nc4cccc(O)c4)n3)c(C)nc2c1` [Cpd 31, 3-{[4-(2,7-dimethylimidazo[1,2-a]pyridin-3-yl)-1,3-thiazol-2-yl]amino}phenol] and `CCCc1nc2ccccn2c1-c1csc(Nc2ccc(N(C)C)cc2)n1` [Cpd 176, N,N-dimethyl-N′-[4-(2-propylimidazo[1,2-a]pyridin-3-yl)-1,3-thiazol-2-yl]benzene-1,4-diamine] cannot be ordered by IC50: under 500 nM for the first, under 500 nM for the second.

`COc1ccc(Nc2nc(-c3c(C)nc4ccc(Br)cn34)cs2)cc1F` [Cpd 104, 4-(6-bromo-2-methylimidazo[1,2-a]pyridin-3-yl)-N-(3-fluoro-4-methoxyphenyl)-1,3-thiazol-2-amine] and `Cc1nc2ccc(Cl)cn2c1-c1csc(Nc2ccc(Cl)cc2Cl)n1` [Cpd 218, 4-(6-chloro-2-methylimidazo[1,2-a]pyridin-3-yl)-N-(2,4-dichlorophenyl)-1,3-thiazol-2-amine] cannot be ordered by IC50: under 500 nM for the first, under 500 nM for the second.

`Cc1ccc(Nc2nc(-c3c(C)nc4cc(Cl)ccn34)cs2)cc1` [Cpd 243, 4-(7-chloro-2-methylimidazo[1,2-a]pyridin-3-yl)-N-(4-methylphenyl)-1,3-thiazol-2-amine] and `CCCc1nc2ccccn2c1-c1csc(Nc2ccc(I)cc2)n1` [Cpd 174, N-(4-iodophenyl)-4-(2-propylimidazo[1,2-a]pyridin-3-yl)-1,3-thiazol-2-amine] cannot be ordered by IC50: under 500 nM for the first, under 500 nM for the second.

`CCCc1nc2ccccn2c1-c1csc(Nc2ccc(Br)cc2)n1` [Cpd 179, N-(4-bromophenyl)-4-(2-propylimidazo[1,2-a]pyridin-3-yl)-1,3-thiazol-2-amine] and `Fc1ccc(Nc2nccc(-c3cnc4ncccn34)n2)cc1` [Cpd 268, N-(4-fluorophenyl)-4-(imidazo[1,2-a]pyrimidin-3-yl)pyrimidin-2-amine] cannot be ordered by IC50: under 500 nM for the first, under 500 nM for the second.
